Experiment [1] concerns the target T1, hMC5-R (Homo sapiens, UniProt P33032).
T1 construct: expressed in transfected cells
Description: cyclic AMP bioassay, hMC5-R. It is filed as cell-based.
Description: Intracellular cyclic AMP (cAMP) levels were determined by an electrochemiluminescence (ECL) assay (Meso Scale Discovery®, Gaithersburg, Md.; referred to hereinafter as MSD). […] Transgenic CHO-K1 cells stably expressing hMC receptor subtypes 1, 3, 4 or 5 were dispensed at a density of approximately 7,000 cells/well in 384-well Multi-Array® plates (MSD) containing integrated carbon electrodes and coated with anti-cAMP antibody. Increasing concentrations of the test compounds were added and the cells were incubated for approximately 40 minutes at approximately 37° C. […] At the end of the second incubation period read buffer (Tris-buffered solution containing an ECL co-reactant and Triton X-100 at ph 7.8) was added and the cAMP levels in the cell lysates were immediately determined by ECL detection with a Sector Imager 6000 Reader® (MSD). Data were analyzed using a computer-assisted non-linear regression analysis (XL fit; IDBS) and reported as either an EC50 value or a Kb value.

A further experiment addresses T2, hMC1-R (Homo sapiens, UniProt Q01726).
T2 construct: expressed in transfected cells
Description: Radioligand binding assay, hMC1-R. The note with it: competition with [125I]-NDP-α-MSH, CHO-K1 cell membranes.

For the next experiment, the target named is T3, hMC3-R (Homo sapiens, UniProt P41968).
T3 construct: expressed in transfected cells
T3 sequence (P41968 whole entry): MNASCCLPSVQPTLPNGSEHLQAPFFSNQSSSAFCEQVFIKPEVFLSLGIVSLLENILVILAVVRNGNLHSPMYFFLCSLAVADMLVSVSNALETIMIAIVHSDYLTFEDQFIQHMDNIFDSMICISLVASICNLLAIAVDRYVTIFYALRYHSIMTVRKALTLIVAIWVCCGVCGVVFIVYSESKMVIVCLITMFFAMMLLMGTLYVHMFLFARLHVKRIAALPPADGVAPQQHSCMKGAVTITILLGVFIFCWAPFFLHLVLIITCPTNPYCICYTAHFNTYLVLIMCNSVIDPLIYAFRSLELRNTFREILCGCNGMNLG
Description: Radioligand binding assay, hMC3-R. The note with it: competition with [125I]-NDP-α-MSH, CHO-K1 cell membranes.

For experiment [2], the target named is T1, hMC5-R. Description: Radioligand binding assay, hMC5-R. The note with it: competition with [125I]-NDP-α-MSH, CHO-K1 cell membranes. The method, then:
Cellular membranes used for the in vitro receptor binding assays were obtained from transgenic CHO-K1 cells stably expressing hMC-R receptor subtypes 1, 3, 4 or 5. […] The pellets were resuspended in the same buffer and centrifuged at 50,000 g for 10 minutes at approximately 4° C. The washed pellets containing the cellular membranes were stored at approximately −80° C.
Filters were washed three times with 50 mM Tris-HCl at pH 7.4 at a temperature of approximately 0-4° C. and then assayed for radioactivity using a Packard Topcount® scintillation counter. Binding data were analyzed by computer-assisted non-linear regression analysis (XL fit; IDBS).

The target in the next experiment is T4, hMC4-R (Homo sapiens, UniProt P32245).
T4 construct: expressed in transfected cells
T4 sequence (P32245 whole entry): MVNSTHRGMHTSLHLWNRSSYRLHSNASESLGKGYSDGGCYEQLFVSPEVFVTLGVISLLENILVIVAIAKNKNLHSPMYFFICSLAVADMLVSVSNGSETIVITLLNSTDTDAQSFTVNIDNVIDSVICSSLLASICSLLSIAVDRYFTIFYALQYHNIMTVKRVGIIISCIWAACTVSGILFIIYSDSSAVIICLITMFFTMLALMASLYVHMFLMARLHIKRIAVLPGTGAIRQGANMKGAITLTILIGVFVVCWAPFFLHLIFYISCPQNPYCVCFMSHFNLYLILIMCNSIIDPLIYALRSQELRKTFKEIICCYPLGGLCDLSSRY
Description: Radioligand binding assay, hMC4-R. The note with it: competition with [125I]-NDP-α-MSH, CHO-K1 cell membranes.

pEC50, pKi: −log10 of the molar value. Bridge positions count the residues as written; N and C are the ends. Square brackets hold non-standard residues; d marks the D form. Peptide text beside a SMILES is read from it. GABA = NCCCC(=O)O

T2 sequence (Q01726 whole entry): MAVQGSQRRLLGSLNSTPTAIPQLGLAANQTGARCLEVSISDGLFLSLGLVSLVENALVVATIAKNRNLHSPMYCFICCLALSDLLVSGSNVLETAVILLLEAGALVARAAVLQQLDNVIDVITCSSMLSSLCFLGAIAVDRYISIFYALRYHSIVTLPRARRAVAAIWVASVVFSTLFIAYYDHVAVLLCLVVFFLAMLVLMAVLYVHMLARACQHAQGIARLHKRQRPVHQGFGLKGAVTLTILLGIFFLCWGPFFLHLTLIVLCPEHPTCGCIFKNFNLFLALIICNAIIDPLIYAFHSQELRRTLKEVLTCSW
T1 sequence (P33032 whole entry): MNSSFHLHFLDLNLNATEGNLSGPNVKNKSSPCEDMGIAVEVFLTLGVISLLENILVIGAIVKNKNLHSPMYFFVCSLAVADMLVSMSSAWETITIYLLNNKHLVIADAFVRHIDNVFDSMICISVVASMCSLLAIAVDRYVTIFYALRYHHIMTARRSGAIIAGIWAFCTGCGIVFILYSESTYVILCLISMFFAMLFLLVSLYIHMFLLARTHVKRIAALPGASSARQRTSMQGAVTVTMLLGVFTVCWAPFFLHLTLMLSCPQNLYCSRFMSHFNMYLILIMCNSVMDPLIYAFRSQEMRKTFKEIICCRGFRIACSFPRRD

In turn, `CC(=O)N[C@@H](CCCNC(=N)N)C(=O)N[C@H]1CSSC(C)(C)[C@@H](C(N)=O)NC(=O)[C@H](Cc2c[nH]c3ccccc23)NC(=O)[C@H](CCCNC(=N)N)NC(=O)[C@@H](Cc2ccccc2)NC(=O)[C@H](Cc2c[nH]cn2)NC(=O)[C@@H](C)NC1=O` [Ac-Arg-c(Cys-D-Ala-His-D-Phe-Arg-Trp-Pen)-NH2] had a pEC50 on hMC5-R [1] of no more than 5.00.

`CCCC[C@H](NC(C)=O)C(=O)N[C@H]1CSSC[C@@H](C(N)=O)NC(=O)CCNC(=O)[C@H](Cc2c[nH]c3ccccc23)NC(=O)[C@H](CCCNC(=N)N)NC(=O)[C@@H](Cc2ccccc2)NC(=O)[C@H](Cc2c[nH]cn2)NC(=O)[C@@H](C)NC1=O` [Ac-Nle-c(Cys-D-Ala-His-D-Phe-Arg-Trp-β-Ala-Cys)-NH2]: the pKi at hMC1-R was 9.00.

Take `CC(=O)N[C@@H](Cc1ccccc1)C(=O)N[C@H]1CSSC[C@@H](C(N)=O)NC(=O)CCCNC(=O)[C@H](Cc2c[nH]c3ccccc23)NC(=O)[C@H](CCCNC(=N)N)NC(=O)[C@@H](Cc2ccccc2)NC(=O)[C@H](Cc2c[nH]cn2)NC1=O` [Ac-Phe-c(Cys-His-D-Phe-Arg-Trp-Gaba-Cys)-NH2] (Ac-FCH[dF]RW[GABA]C-NH2; disulfide 2-8): the pKi at hMC3-R was 7.73; on hMC5-R [2], 9.15; at hMC1-R it was 9.60; at hMC4-R it was 8.67.

For orientation: pEC50 means the negative decadic logarithm of the EC50, by convention in mol/L. Read a low pEC50 as a high EC50. Usually pKi stands for the negative decadic logarithm of the Ki, by convention in mol/L.

These data come from patent US20160354429A1, “Use of Melanocortins to Treat Insulin Sensitivity” (Ipsen Pharma S.A.S., priority 2007, published 2016).
